Reference: US12264134B2 (Merck Sharp & Dohme LLC, priority 2018, dated 2025)
Where a name gives a salt, the structure may show the parent alone.

What was measured:
IDO1 [1] = target: T1, IDO1 (Homo sapiens, UniProt P14902); experiment: IDO1 Cellular Assay in HeLa Cells Stimulated with IFNγ; type: cell-based; settings: read-out: HeLa Cell Potency, IC50
IDO1 [2] = target: T1, IDO1; experiment: IDO1 Human Whole blood Assay; type: cell-based; design: Human whole blood was drawn in sodium heparin coated tubes from healthy internal donors; from tissue; host or cells: human whole blood from healthy donors, stimulated with LPS and IFNγ; settings: LPS and IFNγ stimulated, 18 h, read-out: Human Whole Blood Potency, IC50
Summary of the method: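 Heparinized healthy-donor human whole blood was preincubated 15 min with compound, then stimulated with LPS and IFNγ (100 ng/mL final) for 18 h at 37 °C. Plasma kynurenine was quantified by LC/MS/MS against a D6-kynurenine internal standard, and IC50s came from 4-parameter sigmoidal fits.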

T1 sequence (P14902 whole entry): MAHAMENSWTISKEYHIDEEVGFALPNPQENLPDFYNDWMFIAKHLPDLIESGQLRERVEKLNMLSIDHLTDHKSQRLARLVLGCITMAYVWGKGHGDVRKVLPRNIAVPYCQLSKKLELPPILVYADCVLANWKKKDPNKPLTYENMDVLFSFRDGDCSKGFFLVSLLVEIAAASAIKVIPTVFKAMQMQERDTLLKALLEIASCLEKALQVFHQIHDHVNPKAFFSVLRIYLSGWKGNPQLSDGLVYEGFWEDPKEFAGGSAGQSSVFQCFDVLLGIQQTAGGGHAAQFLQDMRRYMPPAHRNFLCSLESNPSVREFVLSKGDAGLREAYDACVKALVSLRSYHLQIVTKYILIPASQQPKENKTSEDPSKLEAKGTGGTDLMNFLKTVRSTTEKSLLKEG

| IC50 (IDO1 [1]) [nM] | IC50 (IDO1 [2]) [nM] | Compound |
| --- | --- | --- |
| 8.85 | 79 | Cc1cccc(N2CCN(C(=O)Cn3nc(C(=O)N4CCN(CC(N)=O)CC4)c4c3CCC4)CC2)c1C [Example 165, 2-[4-(1-{2-[4-(2,3-dimethylphenyl)piperazin-1-yl]-2-oxoethyl}-1,4,5,6-tetrahydrocyclopenta[c]pyrazole-3-carbonyl)piperazin-1-yl]acetamide] |
| 7.88 | 189 | Cc1cccc(N2CCN(C(=O)Cn3nc(C(=O)N4CCN(C)[C@H](C)C4)c4c3CCC4)CC2)c1C [Example 167, 1-[4-(2,3-dimethylphenyl)piperazin-1-yl]-2-{3-[(3R)-3,4-dimethylpiperazine-1-carbonyl]-5,6-dihydrocyclopenta[c]pyrazol-1(4H)-yl}ethan-1-one] |
| 5.88 | 441 | Cc1cccc(N2CCN(C(=O)Cn3nc(C(=O)N4CCN(C5COC5)CC4)c4c3CCC4)CC2)c1C [Example 168, 1-[4-(2,3-dimethylphenyl)piperazin-1-yl]-2-{3-[4-(oxetan-3-yl)piperazine-1-carbonyl]-5,6-dihydrocyclopenta[c]pyrazol-1(4H)-yl}ethan-1-one] |
| 6.12 | 1240 | COCCN1[C@H](C)CN(C(=O)c2nn(CC(=O)N3CCN(c4cccc(C)c4C)CC3)c3c2CCC3)C[C@@H]1C [Example 172, 1-[4-(2,3-dimethylphenyl)piperazin-1-yl]-2-{3-[(3R,5S)-4-(2-methoxyethyl)-3,5-dimethylpiperazine-1-carbonyl]-5,6-dihydrocyclopenta[c]pyrazol-1(4H)-yl}ethan-1-one] |
| 7.66 | 1670 | Cc1cccc(N2CCN(C(=O)Cn3nc(C(=O)N4CCN5CCOC[C@H]5C4)c4c3CCC4)CC2)c1C [Example 173, 1-[4-(2,3-dimethylphenyl)piperazin-1-yl]-2-{3-[(9aR)-hexahydropyrazino[2,1-c][1,4]oxazine-8(1H)-carbonyl]-5,6-dihydrocyclopenta[c]pyrazol-1(4H)-yl}ethan-1-one] |
| 3.75 | 480 | Cc1cccc(N2CCN(C(=O)Cn3nc(C(=O)N4CCN5CCOC[C@@H]5C4)c4c3CCC4)CC2)c1C [Example 174, 1-[4-(2,3-dimethylphenyl)piperazin-1-yl]-2-{3-[(9aS)-hexahydropyrazino[2,1-c][1,4]oxazine-8(1H)-carbonyl]-5,6-dihydrocyclopenta[c]pyrazol-1(4H)-yl}ethan-1-one] |
| 3.3 | 125 | Cc1cccc(N2CCN(C(=O)Cn3nc(C(=O)N4CCC5(CC4)COCC5O)c4c3CCC4)CC2)c1C (stereo not shown) [Example 181, 1-[4-(2,3-dimethylphenyl)piperazin-1-yl]-2-[3-(4-hydroxy-2-oxo-8-azaspiro[4.5]decane-8-carbonyl)-5,6-dihydrocyclopenta[c]pyrazol-1(4H)-yl]ethan-1-one] |
| 1.64 | 196 | Cc1cccc(N2CCN(C(=O)Cn3nc(C(=O)N4CCC(O)(C(F)F)CC4)c4c3CCC4)CC2)c1C [Example 192, 2-{3-[4-(difluoromethyl)-4-hydroxypiperidine-1-carbonyl]-5,6-dihydrocyclopenta[c]pyrazol-1(4H)-yl}-1-[4-(2,3-dimethylphenyl)piperazin-1-yl]ethan-1-one] |
| 13 | 278 | Cc1cccc(N2CCN(C(=O)Cn3nc(C(=O)N4CC[C@H](N)[C@@H](F)C4)c4c3CCC4)CC2)c1C [Example 203, [(3S,4S)-1-[1-[2-[4-(2,3-dimethylphenyl)piperazin-1-yl]-2-oxo-ethyl]-5,6-dihydro-4H-cyclopenta[c]pyrazole-3-carbonyl]-3-fluoro-4-piperidyl]ammonium; formate] |
| 1.06 | 224 | CC(=O)NC1CCN(C(=O)c2nn(CC(=O)N3CCN(c4cccc(C)c4C)CC3)c3c2[C@@H]2C[C@@H]2C3)CC1 [Example 229, N-{1-[(3bR,4aR)-1-{2-[4-(2,3-dimethylphenyl)piperazin-1-yl]-2-oxoethyl}-3b,4,4a,5-tetrahydro-1H-cyclopropa[3,4]cyclopenta[1,2-c]pyrazole-3-carbonyl]piperidin-4-yl}acetamide] |
| 1.13 | 801 | Cc1cccc(N2CCN(C(=O)Cn3nc(C(=O)N4CC[C@@H](C(C)(C)O)C4)c4c3C[C@H]3C[C@@H]43)CC2)c1C [Example 230, 1-[4-(2,3-dimethylphenyl)piperazin-1-yl]-2-{(3bR,4aR)-3-[(3R)-3-(2-hydroxypropan-2-yl)pyrrolidine-1-carbonyl]-3b,4,4a,5-tetrahydro-1H-cyclopropa[3,4]cyclopenta[1,2-c]pyrazol-1-yl}ethan-1-one] |
| 3.61 | 273 | Cc1cccc(N2CCN(C(=O)Cn3nc(C(=O)N4C[C@@H](C)N[C@@H](C)C4)c4c3C[C@H]3C[C@@H]43)CC2)c1C [Example 234, 1-[4-(2,3-dimethylphenyl)piperazin-1-yl]-2-{(3bR,4aR)-3-[(3R,5S)-3,5-dimethylpiperazine-1-carbonyl]-3b,4,4a,5-tetrahydro-1H-cyclopropa[3,4]cyclopenta[1,2-c]pyrazol-1-yl}ethan-1-one] |
| 3.1 | 339 | Cc1cccc(N2CCN(C(=O)Cn3nc(C(=O)N4C[C@@H](C)N(C)[C@@H](C)C4)c4c3C[C@H]3C[C@@H]43)CC2)c1C [Example 235, 1-[4-(2,3-dimethylphenyl)piperazin-1-yl]-2-{(3bR,4aR)-3-[(3R,5S)-3,4,5-trimethylpiperazine-1-carbonyl]-3b,4,4a,5-tetrahydro-1H-cyclopropa[3,4]cyclopenta[1,2-c]pyrazol-1-yl}ethan-1-one] |
| 8.43 | 5050 | Cc1cccc(N2CCN(C(=O)Cn3nc(C(=O)N4CCC(O)(CN)CC4)c4c3C[C@H]3C[C@@H]43)CC2)c1C [Example 238, 2-{(3bR,4aR)-3-[4-(aminomethyl)-4-hydroxypiperidine-1-carbonyl]-3b,4,4a,5-tetrahydro-1H-cyclopropa[3,4]cyclopenta[1,2-c]pyrazol-1-yl}-1-[4-(2,3-dimethylphenyl)piperazin-1-yl]ethan-1-one] |
| 0.91 | 91 | Cc1cccc(N2CCN(C(=O)Cn3nc(C(=O)N4CCN(CCO)CC4)c4c3C[C@H]3C[C@@H]43)CC2)c1C [Example 247] |
| 2.03 | 109 | Cc1cccc(N2CCN(C(=O)Cn3nc(C(=O)N4CCC(O)(CF)CC4)c4c3C[C@H]3C[C@@H]43)CC2)c1C [Example 276, 1-[4-(2,3-dimethylphenyl)piperazin-1-yl]-2-{(3bR,4aR)-3-[4-(fluoromethyl)-4-hydroxypiperidine-1-carbonyl]-3b,4,4a,5-tetrahydro-1H-cyclopropa[3,4]cyclopenta[1,2-c]pyrazol-1-yl}ethan-1-one] |
| 0.59 | 70 | Cc1cccc(N2CCN(C(=O)Cn3nc(C(=O)N4CC[C@@H](O)[C@H](F)C4)c4c3C[C@H]3C[C@@H]43)CC2)c1C [Example 279, 1-[4-(2,3-dimethylphenyl)piperazin-1-yl]-2-{(3bR,4aR)-3-[(3R,4R)-3-fluoro-4-hydroxypiperidine-1-carbonyl]-3b,4,4a,5-tetrahydro-1H-cyclopropa[3,4]cyclopenta[1,2-c]pyrazol-1-yl}ethan-1-one] |
